Test: xn = mol fraction of the nth substance listed
Conditions: 100 kPa, Liquid; for viscosity: Concentric cylinders viscometry; for mass density: Vibrating tube method

CCC=O [propanal] + CC(C)O
Conditions	mass density [kg/m3]	viscosity [mPa·s]
293.15 K, x1 = 0.0812	792	2.37
293.15 K, x1 = 0.16	797.2	2.3
293.15 K, x1 = 0.24	801.6	2.2
293.15 K, x1 = 0.3499	806.4	2
293.15 K, x1 = 0.4402	809.2	1.81
293.15 K, x1 = 0.5619	811.4	1.52
293.15 K, x1 = 0.6483	811.8	1.3
293.15 K, x1 = 0.74	811.3	1.06
293.15 K, x1 = 0.85	809.1	0.76
293.15 K, x1 = 0.94	806	0.51
293.15 K, x1 = 1	802.4	0.34
298.15 K, x1 = 0.0812	786.6	2.04
298.15 K, x1 = 0.16	791.5	1.97
298.15 K, x1 = 0.24	795.9	1.88
298.15 K, x1 = 0.3499	800.4	1.72
298.15 K, x1 = 0.4402	803	1.56
298.15 K, x1 = 0.5619	804.9	1.32
298.15 K, x1 = 0.6483	805	1.13
298.15 K, x1 = 0.74	804.1	0.93
298.15 K, x1 = 0.85	802.3	0.67
298.15 K, x1 = 0.94	799.1	0.46
298.15 K, x1 = 1	796.2	0.33
303.15 K, x1 = 0.0812	781.5	1.76
303.15 K, x1 = 0.16	786.2	1.69
303.15 K, x1 = 0.24	790	1.61
303.15 K, x1 = 0.3499	794.5	1.47
303.15 K, x1 = 0.4402	797.1	1.33
303.15 K, x1 = 0.5619	798.8	1.13
303.15 K, x1 = 0.6483	798.8	0.97
303.15 K, x1 = 0.74	797.8	0.8
303.15 K, x1 = 0.85	795.8	0.59
303.15 K, x1 = 0.94	792.6	0.42
303.15 K, x1 = 1	790.3	0.31
308.15 K, x1 = 0.0812	776.7	1.52
308.15 K, x1 = 0.16	780.9	1.46
308.15 K, x1 = 0.24	784.3	1.38
308.15 K, x1 = 0.3499	788.2	1.26
308.15 K, x1 = 0.4402	790.5	1.14
308.15 K, x1 = 0.5619	792	0.97
308.15 K, x1 = 0.6483	792	0.83
308.15 K, x1 = 0.74	791.4	0.69
308.15 K, x1 = 0.85	789.5	0.52
308.15 K, x1 = 0.94	786.4	0.39
308.15 K, x1 = 1	784.5	0.3
313.15 K, x1 = 0.0812	771.8	1.31
313.15 K, x1 = 0.16	775.5	1.24
313.15 K, x1 = 0.24	778.8	1.17
313.15 K, x1 = 0.3499	782.4	1.06
313.15 K, x1 = 0.4402	784.3	0.96
313.15 K, x1 = 0.5619	785.7	0.83
313.15 K, x1 = 0.6483	785.8	0.72
313.15 K, x1 = 0.74	785.3	0.61
313.15 K, x1 = 0.85	783.3	0.47
313.15 K, x1 = 0.94	780.8	0.36
313.15 K, x1 = 1	779	0.28
318.15 K, x1 = 0.0812	766.8	1.14
318.15 K, x1 = 0.16	770.2	1.08
318.15 K, x1 = 0.24	773.1	1.01
318.15 K, x1 = 0.3499	776.5	0.91
318.15 K, x1 = 0.4402	778.4	0.83
318.15 K, x1 = 0.5619	779.7	0.71
318.15 K, x1 = 0.6483	779.7	0.63
318.15 K, x1 = 0.74	778.9	0.53
318.15 K, x1 = 0.85	777.2	0.42
318.15 K, x1 = 0.94	775.4	0.33
318.15 K, x1 = 1	773.5	0.27
323.15 K, x1 = 0.0812	761.6	0.99
323.15 K, x1 = 0.16	764.6	0.94
323.15 K, x1 = 0.24	767.1	0.87
323.15 K, x1 = 0.3499	770	0.79
323.15 K, x1 = 0.4402	771.7	0.72
323.15 K, x1 = 0.5619	772.8	0.62
323.15 K, x1 = 0.6483	772.8	0.55
323.15 K, x1 = 0.74	772.4	0.47
323.15 K, x1 = 0.85	770.9	0.38
323.15 K, x1 = 0.94	769.4	0.3
323.15 K, x1 = 1	768.2	0.25

From the NIST ThermoML archive (doi:10.1016/j.jct.2017.07.004)
